Measurements taken from patent US20200390767A1, “Formulations of 4-(7-Hydroxy-2-isopropyl-4-oxo-4H-quinazolin-3-yl)-benzonitrile” (NOVARTIS AG, priority 2019, published 2020).

Legend:
[1] = First in human study, plasma pharmacokinetics; assay type: in vivo
Description: Accumulation of compound I at steady-state was minor (˜1.7-fold) following administration of 0.15%, 1.5% or 2.5% suspension 4 times daily and also minor (˜1.3-fold) following 2.5% 8 times daily for 7 days.

[2] = test system: postoperative ocular pain in patients undergoing photorefractive keratectomy (PRK) surgery; assay: PRK clinical study, Ocular Pain Assessment Survey (OPAS); assay type: in vivo, human
Description: The Ocular Pain Assessment Survey (OPAS) is a quantitative, multidimensional questionnaire, specifically designed for assessment of corneal and ocular surface pain and Quality of Life (QoL) changes. The OPAS assesses pain intensity, frequency of eye and non-eye pain, QoL changes, aggravating factors, associated factors, and symptomatic relief quantitative, allowing for monitoring of treatment responses. See Qazi et al., Ophthalmology July 123(7):1458-1468 (2016).
The OPAS is a validated instrument for quantifying and monitoring corneal and ocular surface pain and quality of life, developed in response to an identified need from a National Eye Institute Workshop in 2010. See Qazi et al., Ophthalmology July 123(7):1458-1468 (2016). The rating scale of the overall pain severity in the OPAS from Qazi et al. rated from 0 (no pain) to 10 (severe pain) or for frequency of symptoms from 0% (never) to 100% (all the time), as per the survey. The patients were asked to fill out the OPAS survey/questionnaire at Day 2, Day 4 (at the end of treatment period with study drug) and Day 8. Statistical analysis of OPAS results was not performed.

temperature sensitivity = assay: First in human study, hand immersion test at 49° C.; assay type: in vivo; conditions: water at 49° C., MAD part
Protocol: Safety assessments: Safety assessments consisted of collecting all adverse events (AEs), serious adverse events (SAEs), including systemic and ocular adverse events, along with their severity and relationship to study drug. Systemic safety assessments included regular monitoring of hematology, blood chemistry and urinalysis performed at study center and regular assessments of physical examination, vital signs (systolic and diastolic blood pressure, pulse rate, and body temperature), ECG, pregnancy and assessments of fertility and hand immersion test at 49° C. during MAD part. Ocular safety assessments included early treatment diabetic retinopathy study (ETDRS) visual acuity, intraocular pressure, slit-lamp biomicroscopy, corneal staining and dilated fundus exam.
For the hand immersion test, all subjects in the treatment cohorts withdrew their hand from water at 49° C. at a time interval between 0 to ≤50 secs.

Question: Which Accumulation at steady-state ([1]; 0.15%, 1.5% or 2.5% suspension 4 times daily) does the source give for `CC(C)c1nc2cc(O)ccc2c(=O)n1-c1ccc(C#N)cc1` [Compound I, 4-(7-hydroxy-2-isopropyl-4-oxo-4H-quinazolin-3-yl)-benzonitrile] here?
Answer: ~1.7 fold

Question: And the Accumulation at steady-state ([1]; 2.5%, 8 times daily for 7 days)?
Answer: ~1.3 fold

Question: What about the “increase in systemic exposure with dose” value ([1]; increase in dose from 0.15% to 2.5%) of the same compound?
Answer: less than dose-proportional increase

Question: What about the “OPAS eye pain intensity during the previous 24 hours (questions 4, 5, 6) versus Vehicle” value ([2]; Day 2) of the same compound?
Answer: all 3 answers numerically favored compound I

Question: And the “OPAS how often eye pain with redness, burning, sensitivity to light, tearing (questions 22-25) versus Vehicle” value ([2]; human, in vivo)?
Answer: all answers favored compound I

Question: What about the “hand immersion time versus vehicle” value (temperature sensitivity) of the same compound?
Answer: no meaningful change in immersion time
